Values quoted from earlier work as cited in patent publication US20080242727A1, “DIETARY COMPOSITIONS CONTAINING ALPHA AMINO N-BUTYRATE AND METHODS OF ENHANCING LEAN BODY MASS” (priority 2007, published 2008).

What was measured:
[1] = tested on: protein synthesis in skeletal muscle; settings: for protein synthesis in skeletal muscle of food-deprived rats: oral administration, vs saline-treated controls
[2] = tested on: hearts perfused with buffer; settings: for negative nitrogen balance: buffer with glucose and normal plasma levels of other amino acids, except BCAA
[3] = tested on: hemidiaphragms from fed or fasted rats; settings: in vitro; for specific activity of muscle proteins (protein synthesis): [14C]lysine, with or without insulin
[4] = tested on: rat liver proteolysis; settings: out of 12 amino acids tested; only at concentrations much higher than physiological
[5] = dose of as little as 3 g/day
[6] = tested on: erythroid progenitors; settings: in vivo or in culture

Row | Structure (SMILES) | protein synthesis in skeletal muscle of food-deprived rats [1] | negative nitrogen balance [2] | specific activity of muscle proteins (protein synthesis) [3] | other results
1 | CC[C@H](C)[C@H](N)C(=O)O [isoleucine] | ineffective | not | inhibitory effects | –
2 | CC(C)C[C@H](N)C(=O)O [Leucine, L-Leucine] | stimulated protein synthesis | decreased the negative nitrogen balance | increased | protein synthesis / eIF4F formation ([1]; independently of increases in serum insulin): stimulated protein synthesis by enhancing eukaryotic initiation factor (eIF)4F formation; muscle synthesis after exercise ([1]; oral gavage to rats after exercise): stimulated muscle synthesis independent of increased plasma insulin; glucocorticoid-induced decreases in protein synthesis and mRNA translation ([1]; oral, rats): restored; rate of protein synthesis as % of the rate of proteolysis ([2]; leucine concentrations giving maximal inhibition of protein degradation): 50%; inhibition of deprivation-induced rat liver proteolysis [4]: strongest inhibitor; protein degradation [3]: prohibited protein degradation
3 | CC(C)(O)CC(=O)O [HMB, b-hydroxy b-methylbutyrate] | – | – | – | effect on catabolism, lean muscle mass and recuperation [5]: anti-catabolic, promotes lean muscle mass, and may speed recuperation
4 | CC(C)[C@H](N)C(=O)O [valine] | ineffective | not | no effect | –
5 | CCC(N)C(=O)O (stereo not drawn) [ABA, alpha amino n-butyrate] | – | – | – | growth of erythroid progenitors [6]: stimulated the growth of all classes of erythroid progenitors
